Read-outs that look alike come from different tables or passages of the source.
Tests used:
[1] = system: influenza virus endonuclease; settings: read-out: IC50 in enzymatic assays; cited from earlier work
[2] = target: influenza virus vRNPs reconstituted in HEK293T cells (Influenza A virus, UniProt P03433); assay: vRNP reconstitution assay in HEK293T cells; assay type: cell-based; settings: for selectivity index (ratio of CC50 to EC50): vRNP assay, HEK293T
[3] = in vitro; settings: human, vRNP reconstitution assay Cytotoxicity CC50
[4] = in vitro; settings: dog
[5] = system: influenza A virus (strain A/PR/8/34); assay: microbe, parasite or virus in culture; assay type: cell-based; settings: for EC90 / EC99: Influenza A virus, 24 h; for EC90: read-out: Virus yield assay Antiviral activity EC90; for EC99: read-out: Virus yield assay Antiviral activity EC99
[6] = system: untransfected HEK293T cells; settings: human, 24 h, 200 μM
[7] = MTS cell viability assay in uninfected MDCK cells; settings: dog
[8] = MTS cell viability assay in untransfected HEK293T cells; settings: human, vRNP reconstitution assay Cytotoxicity CC50, untransfected HEK293T cells
[9] = read-out: vRNP reconstitution assay Activity EC50
[10] = PR/8, 1-log10 reduction in virus titer, qPCR, MDCK cells
[11] = PR/8, 2-log10 reduction in virus titer, qPCR, MDCK cells

SMILES	EC50 [2, 9] [µM]	CC50 at 24 h [3] [µM]	CC50 at 24 h [4] [µM]	EC90 [5, 10] [µM]	EC99 [5, 11] [µM]	SI (selectivity index, ratio between CC50 and EC90) ([5]; MDCK cells)	further results
O=c1[nH]c(-c2ccc(-c3nnn[nH]3)cc2)ncc1O [2-(4-(1H-tetrazol-5-yl)phenyl)-5-hydroxypyrimidin-4(3H)-one]							IC50 [1]: 0.15 µM
NC(=O)N/N=C/c1cccc(O)c1O [Compound 1, N’-(2,3-dihydroxybenzylidene)-semicarbazide]	107	> 200					
COc1cccc(/C=N/NC(N)=O)c1O [Compound 2]	> 100	> 200					
CCCCCCCC(=O)N/N=C/c1cccc(O)c1O [Compound 3]	5.9	< 50	> 200				selectivity index (ratio of CC50 to EC50) [2]: below 8
CCCCCCCC(=O)N/N=C/c1cccc(OC)c1O [Compound 4]	6.3	< 50	> 200				selectivity index (ratio of CC50 to EC50) [2]: below 8
O=C(N/N=C/c1cccc(O)c1O)c1ccccc1 [Compound 5]	2.6		≥ 146	> 25	> 25		selectivity index (ratio of CC50 to EC50) [2]: below 8
COc1cccc(/C=N/NC(=O)c2ccccc2)c1O [Compound 6]	15		> 200	> 50	> 50		selectivity index (ratio of CC50 to EC50) [2]: below 8
O=C(N/N=C/c1cccc(O)c1O)c1ccccc1O [Compound 7]	3.2		> 200	100	172	>2.0	difference between EC50 in the vRNP assay and EC90 in the virus yield assay [2]: ≥ 8 fold; selectivity index (ratio of CC50 to EC50) [2]: below 8
COc1cccc(/C=N/NC(=O)c2ccccc2O)c1O [Compound 8]	1.9		> 200	> 12.5	> 12.5		selectivity index (ratio of CC50 to EC50) [2]: below 8
O=C(N/N=C/c1cc(O)c(O)cc1O)c1ccccc1O [Compound 9]	5.5	> 200	> 200	5.3	16	>38	
O=C(N/N=C/c1c(O)cc(O)cc1O)c1ccccc1O [Compound 10]	0.4	132	111	8.5	14		difference between EC50 in the vRNP assay and EC90 in the virus yield assay [2]: ≥ 8 fold
O=C(N/N=C/c1cc(O)c(O)c(O)c1)c1ccccc1O [Compound 11]	5.6	> 200	> 200	12	30	>17	
COc1cc(C(=O)N/N=C/c2cc(O)ccc2O)cc(OC)c1OC [Compound 12]	20	39	> 200	> 12.5	> 12.5		
O=C(N/N=C/c1ccccc1)c1cc(O)c(O)c(O)c1 [Compound 13]	6.3	> 200	> 200	34	71	>5.9	
O=C(N/N=C/c1ccccc1O)c1cc(O)c(O)c(O)c1 [Compound 14]	2.3	> 200	> 200	37	63	>5.4	difference between EC50 in the vRNP assay and EC90 in the virus yield assay [2]: ≥ 8 fold
O=C(N/N=C/c1cc(O)ccc1O)c1cc(O)c(O)c(O)c1 [Compound 15]	14	> 200	≥ 172	7.5	18	≥23	

SMILES	EC50 [2, 9] [µM]	CC50 at 24 h [3] [µM]	CC50 at 24 h [4] [µM]	EC90 [5, 10] [µM]	EC99 [5, 11] [µM]	SI (selectivity index, ratio between CC50 and EC90) ([5]; MDCK cells)	further results
COc1ccc(O)c(/C=N/NC(=O)c2cc(O)c(O)c(O)c2)c1 [Compound 16]	5.2	> 200	> 200	28	67	>7.1	
O=C(N/N=C/c1ccc(O)cc1O)c1cc(O)c(O)c(O)c1 [Compound 17]	7.1	> 200	> 200	8.1	21	>25	
O=C(N/N=C/c1cccc(O)c1O)c1cc(O)c(O)c(O)c1 [Compound 18]	3.3	> 200	> 200	2.2	6.2	>91	cytotoxicity in the vRNP assay [6]: not cytotoxic at 200 μM
COc1cccc(/C=N/NC(=O)c2cc(O)c(O)c(O)c2)c1O [Compound 19]	5.7	> 200	> 200	26	53	>7.7	cytotoxicity in the vRNP assay [6]: not cytotoxic at 200 μM
O=C(N/N=C/c1ccc(O)c(O)c1O)c1cc(O)c(O)c(O)c1 [Compound 20]	2.2	> 200	> 200	11	35	>18	
O=C(N/N=C/c1cc(O)c(O)cc1O)c1cc(O)c(O)c(O)c1 [Compound 21]	2.5	> 200	> 200	3.6	8.3	>56	
O=C(N/N=C/c1c(O)cc(O)cc1O)c1cc(O)c(O)c(O)c1 [Compound 22]	0.42	> 200	> 200	3.4	7.4	>59	difference between EC50 in the vRNP assay and EC90 in the virus yield assay [2]: ≥ 8 fold
O=C(N/N=C/c1cc(O)c(O)c(O)c1)c1cc(O)c(O)c(O)c1 [Compound 23]	3.1	> 200	> 200	3.5	11	>57	
O=C(N/N=C/c1ccccn1)c1cc(O)c(O)c(O)c1 [Compound 24]	25	> 200	> 200	26	58	>7.7	
O=C(N/N=C/c1ccc[nH]1)c1cc(O)c(O)c(O)c1 [Compound 25]	4.1	> 200	> 200	70	132	>2.9	difference between EC50 in the vRNP assay and EC90 in the virus yield assay [2]: ≥ 8 fold
O=C(O)c1ccc(-c2cccc(/C=N/NC(=O)c3cc(O)c(O)c(O)c3)c2)cc1 [Compound 26]	5.5	> 200	> 200	13	36	>15	
NC(=O)N/N=C/c1cc(O)c(O)c(O)c1 [Compound 27]	21	> 200					
NNC(=O)c1cc(O)c(O)c(O)c1 [Compound 28, 3,4,5-trihydroxybenzohydrazide]	7.2	> 200	> 200	85	158	>2.4	difference between EC50 in the vRNP assay and EC90 in the virus yield assay [2]: ≥ 8 fold
O=C(O[C@@H]1Cc2c(O)cc(O)cc2O[C@@H]1c1cc(O)c(O)c(O)c1)c1cc(O)c(O)c(O)c1 [EGCG, epigallocatechin-3-gallate]							IC50 [1]: 1.9 µM
CC(C)/C=C1\N=C(CC(C)C)C(=O)N(O)C1=O [Flutimide]							IC50 [1]: 5.5 µM
NC(=O)c1ncn([C@@H]2O[C@H](CO)[C@@H](O)[C@H]2O)n1 [Ribavirin, reference compound]							EC90 ([5]; PR/8, MDCK): 8.5 µM; EC99 ([5]; PR/8, MDCK): 13 µM; EC50 [2]: 9.4 µM; CC50 at 24 h [7]: > 200 µM; CC50 at 24 h [8]: > 200 µM

From article PMC4980666, “N-acylhydrazone inhibitors of influenza virus PA endonuclease with versatile metal binding modes” (Scientific Reports, 2016)
